Measured values as given in patent publication US20250326772A1, “MRGPRX2 ANTAGONISTS, PHARMACEUTICAL COMPOSITION INCLUDING MRGPRX2 ANTAGONIST, AND METHOD OF TREATING MRGPRX2-MEDIATED DISEASE OR DISORDER” (KYORIN PHARMACEUTICAL CO., LTD., priority 2024, published 2025).

Target: T1, MRGPRX2 (Homo sapiens, UniProt Q96LB1)
T1 sequence (Q96LB1 1-330): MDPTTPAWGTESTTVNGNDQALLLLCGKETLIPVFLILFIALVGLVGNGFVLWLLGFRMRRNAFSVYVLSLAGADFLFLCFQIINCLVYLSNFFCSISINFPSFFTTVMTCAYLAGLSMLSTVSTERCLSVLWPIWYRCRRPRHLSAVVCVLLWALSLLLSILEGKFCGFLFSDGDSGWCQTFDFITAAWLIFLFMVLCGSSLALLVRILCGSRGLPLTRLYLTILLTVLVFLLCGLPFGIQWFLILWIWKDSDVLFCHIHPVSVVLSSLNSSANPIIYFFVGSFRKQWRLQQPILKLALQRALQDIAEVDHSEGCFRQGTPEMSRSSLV
Assay: MRGPRX2 reporter cell assay (NFAT-RE luciferase, Substance P stimulation)
Format: cell-based
Settings: U2OS cells stably transfected with MRGPRX2 and NFAT-RE luciferase reporter, Substance P at EC80
Method: MRGPRX2 Reporter Cell Assays U2OS cells (ATCC, Manassas, VA) were stably transfected with MRGPRX2 expression clones (GeneCopoeia, Rockville, MD) and the pGL4.30 [luc2P/NFAT-RE/Hygro] reporter plasmid (Promega, Madison, WI). Clonal cells were maintained in Growth Media (McCoy's 5A, 10% FBS, 495 μg/ml hygromycin, 2 μg/ml puromycin, 100 units/ml penicillin, and 100 ug/ml streptomycin). The day before assay, cells were plated to white 384-well microplates at 3000 (MRGPRX2) cells/well in 10 ul Assay Media (McCoy's 5A, 2% charcoal dextran stripped FBS, 100 units/ml penicillin, and 100 ug/ml streptomycin) (Gibco, Thermo Fisher) and allowed to adhere overnight. The following day, serially diluted compound stocks were added directly to the cells (final DMSO concentration of 0.5%) and pre-incubated for 30 minutes at 37° C., 5% CO2. The final concentration of Substance P (Tocris, Minneapolis, MN, or PEPTIDE INSTITUTE, Osaka, Japan) corresponding to EC80 was added to stimulate the (MRGPRX2) cells. Cells were returned to the incubator for 6 hrs, after which 5 ul of ONE-GLO substrate (Promega) was added. Luminescence was read within 15 minutes (BioTek, Winooski, VT or infinite M1000Pro, Tecan Japan, Kanagawa, Japan). Percent inhibition for each test compound was calculated using the formula: […] where: • A=the luminescence count of the “test compound” well • B=the median luminescence count of the “Vehicle (0.5% DMSO)” wells • C═the median luminescence count of the “Vehicle (0.5% DMSO)+5 uM of substance P” wells The mean percent inhibition of each concentration of “test compound” was used to generate dose-response curves. IC50 values were calculated using a four-parameter logistic fit to the data using GraphPad Prism software. • +++: […]

Structure (SMILES)	IC50 (class symbols)	IC50
N#Cc1ncccc1-c1c(-c2c(C(F)F)nn3c2OCCC3)[nH]c2ncccc12 [EX. 411]	10 to 100 nM	–
FC(F)c1nn2c(c1-c1[nH]c3ncccc3c1-c1ccncc1C(F)(F)F)OCCC2 [EX. 412]	10 to 100 nM	–
N#Cc1cccnc1-c1c(-c2c(C(F)F)nn3c2OCCC3)[nH]c2ncccc12 [EX. 413]	100 to 1000 nM	–
FC(F)c1nn2c(c1-c1[nH]c3ncccc3c1-c1cnsc1C(F)F)OCCC2 [EX. 416]	10 to 100 nM	–
Cn1cc(-c2c(-c3c(C4CC4)nn4c3OCCC4)[nH]c3ncccc23)c(OC(F)F)n1 [EX. 420]	< 10 nM	–
Cc1nn2c(c1-c1[nH]c3ncccc3c1-c1cn(C)nc1OC(F)F)OCCC2 [EX. 421, 3-(3-(3-(difluoromethoxy)-1-methyl-1H-pyrazol-4-yl)-1H-pyrrolo[2,3-b]pyridin-2-yl)-2-methyl-6,7-dihydro-5H-pyrazolo[5,1-b] [1,3]oxazine]	< 10 nM	–
CCc1nn2c(c1-c1[nH]c3ncccc3c1-c1cn(C)nc1OC(F)F)OCCC2 [EX. 422]	< 10 nM	5.8 nM
Cn1cc(-c2c(-c3c(CF)nn4c3OCCC4)[nH]c3ncccc23)c(OC(F)F)n1 [EX. 423]	< 10 nM	–
N#Cc1ncccc1-c1c(-c2c(C(F)F)nn3c2OC[C@@H](F)C3)[nH]c2ncccc12 [EX. 424]	< 10 nM	–
N[C@@H]1COc2c(-c3[nH]c4ncccc4c3-c3csnc3OC(F)F)c(C(F)F)nn2C1 [EX. 425]	< 10 nM	–
Cn1cc(-c2c(-c3c(C(F)F)nn4c3OCC(O)C4)[nH]c3ncccc23)c(OC(F)F)n1 (stereo not drawn) [EX. 426, 3-(3-(3-(difluoromethoxy)-1-methyl-1H-pyrazol-4-yl)-1H-pyrrolo[2,3-b]pyridin-2-yl)-2-(difluoromethyl)-6,7-dihydro-5H-pyrazolo[5,1-b] [1,3]oxazin-6-ol]	< 10 nM	–
Cn1cc(-c2c(-c3c(C(F)F)nn4c3OC[C@@H](O)C4)[nH]c3ncsc23)c(OC(F)F)n1 [EX. 427, (S)-3-(6-(3-(difluoromethoxy)-1-methyl-1H-pyrazol-4-yl)-4H-pyrrolo[2,3-d]thiazol-5-yl)-2-(difluoromethyl)-6,7-dihydro-5H-pyrazolo[5,1-b] [1,3]oxazin-6-ol]	< 10 nM	–
Cn1cc(-c2c(-c3c(C(F)F)nn4c3OC[C@@H](N)C4)[nH]c3ncsc23)c(OC(F)F)n1 [EX. 428, (S)-3-(6-(3-(difluoromethoxy)-1-methyl-1H-pyrazol-4-yl)-4H-pyrrolo[2,3-d]thiazol-5-yl)-2-(difluoromethyl)-6,7-dihydro-5H-pyrazolo[5,1-b] [1,3]oxazin-6-amine]	< 10 nM	–
COc1ncccc1-c1c(-c2c(C(F)F)nn3c2OCCC3)[nH]c2ncccc12 [EX. 429, 2-(difluoromethyl)-3-(3-(2-methoxypyridin-3-yl)-1H-pyrrolo[2,3-b]pyridin-2-yl)-6,7-dihydro-5H-pyrazolo[5,1-b] [1,3]oxazine]	< 10 nM	–
FC(F)c1nn2c(c1-c1[nH]c3ncccc3c1C1=CCCCC1)OCCC2 [EX. 430]	< 10 nM	–
COc1ncc(F)cc1-c1c(-c2c(C(F)F)nn3c2OCCC3)[nH]c2ncccc12 [EX. 431]	< 10 nM	–
Cn1cc(-c2c(-c3c(C(F)F)nn4c3OCC4)[nH]c3ncccc23)c(OC(F)F)n1 [EX. 432]	< 10 nM	–
Cc1cc(-c2c(-c3c(C(F)F)nn4c3OCC4)[nH]c3ncccc23)c(C#N)s1 [EX. 433]	< 10 nM	–
Cn1cc(-c2c(-c3c(C(F)F)nn4c3OC[C@@H](F)C4)[nH]c3ncccc23)c(OC(F)F)n1 [EX. 434]	< 10 nM	–
CO[C@]1(C)COc2c(-c3[nH]c4ncccc4c3-c3cn(C)nc3OC(F)F)c(C(F)F)nn2C1 [EX. 435]	< 10 nM	4.1 nM
Cc1cc(-c2c(-c3c(C(F)F)nn4c3OC[C@@H](F)C4)[nH]c3ncccc23)c(Cl)s1 [EX. 436]	< 10 nM	–
FC(F)Oc1ncccc1-c1c(-c2c(C(F)F)nn3c2OC[C@@H](F)C3)[nH]c2ncccc12 [EX. 437]	< 10 nM	–
C[C@@]1(O)COc2c(-c3[nH]c4ncccc4c3-c3cccnc3OC(F)F)c(C(F)F)nn2C1 [EX. 438]	< 10 nM	–
CO[C@]1(C)COc2c(-c3[nH]c4ncccc4c3-c3cccnc3OC(F)F)c(C(F)F)nn2C1 [EX. 439]	< 10 nM	–

Structure (SMILES)	IC50 (class symbols)	IC50
C[C@@]1(O)COc2c(-c3[nH]c4ncccc4c3-c3cccnc3OC(F)F)c(C3CC3)nn2C1 [EX. 440]	< 10 nM	–
FC(F)Oc1ncccc1-c1c(-c2c(C(F)F)nn3c2OCCCC3)[nH]c2ncccc12 [EX. 441]	< 10 nM	–
FC(F)Oc1ncccc1-c1c(-c2c(C(F)F)nn3c2OCC3)[nH]c2ncccc12 [EX. 442]	< 10 nM	–
FC(F)Oc1ccccc1-c1c(-c2c(C(F)F)nn3c2OC[C@@H](F)C3)[nH]c2ncccc12 [EX. 444]	< 10 nM	–
FC(F)c1nn2c(c1-c1[nH]c3ncccc3c1-c1ccccc1)OC[C@@H](F)C2 [EX. 445]	< 10 nM	–
COc1ncccc1-c1c(-c2c(C(F)F)nn3c2OC[C@@H](F)C3)[nH]c2ncccc12 [EX. 446]	< 10 nM	–
Fc1ccc(-c2c(-c3c(C(F)F)nn4c3OC[C@@H](F)C4)[nH]c3ncccc23)c(OC(F)F)c1 [EX. 447]	< 10 nM	–
Cn1cc(-c2c(-c3c(C(F)F)nn4c3OC[C@@H](F)C4)[nH]c3ncccc23)c(C#N)n1 [EX. 449]	< 10 nM	2.6 nM
Cc1cc(-c2c(-c3c(C(F)F)nn4c3OC[C@@H](F)C4)[nH]c3ncccc23)c(C#N)s1 [EX. 450]	< 10 nM	–
Cc1cc(-c2c(-c3c(C(F)F)nn4c3OC[C@@](C)(O)C4)[nH]c3ncccc23)c(C#N)s1 [EX. 451]	< 10 nM	–
Cc1cc(-c2c(-c3c(C(F)F)nn4c3OCCCC4)[nH]c3ncccc23)c(C#N)s1 [EX. 452]	< 10 nM	–
O[C@@H]1COc2c(-c3[nH]c4ncccc4c3-c3ccsc3Cl)c(C(F)F)nn2C1 [EX. 453]	< 10 nM	–
O[C@@H]1COc2c(-c3[nH]c4ncccc4c3-c3cccnc3OC(F)F)c(C(F)F)nn2C1 [EX. 454]	< 10 nM	–
O[C@@H]1COc2c(-c3[nH]c4ncccc4c3-c3cccnc3OC(F)F)c(C3CC3)nn2C1 [EX. 455]	< 10 nM	–
CS(=O)(=O)N[C@@H]1COc2c(-c3[nH]c4ncccc4c3-c3cccnc3OC(F)F)c(C3CC3)nn2C1 [EX. 456]	< 10 nM	–
Cc1cc(-c2c(-c3c(C4CC4)nn4c3OC[C@@H](NS(C)(=O)=O)C4)[nH]c3ncccc23)c(C#N)s1 [EX. 457]	< 10 nM	–
Cc1cc(-c2c(-c3c(C(F)F)nn4c3OC[C@@H](O)C4)[nH]c3ncccc23)c(C#N)s1 [EX. 458]	< 10 nM	–
Cc1cc(-c2c(-c3c(C)nn4c3OC[C@@H](O)C4)[nH]c3ncccc23)c(C#N)s1 [EX. 459]	< 10 nM	–
Cc1cc(-c2c(-c3c(C4CC4)nn4c3OC[C@@H](O)C4)[nH]c3ncccc23)c(C#N)s1 [EX. 460]	< 10 nM	–
O[C@@H]1COc2c(-c3[nH]c4ncccc4c3-c3csnc3OC(F)F)c(C(F)F)nn2C1 [EX. 461]	< 10 nM	–
COc1ncccc1-c1c(-c2c(C(F)F)nn3c2OC[C@@H](O)C3)[nH]c2ncccc12 [EX. 462]	< 10 nM	–
O[C@@H]1COc2c(-c3[nH]c4ncccc4c3-c3ccncc3OC(F)F)c(C(F)F)nn2C1 [EX. 463]	< 10 nM	–
O[C@@H]1COc2c(-c3[nH]c4ncccc4c3-c3ccccc3OC(F)(F)F)c(C(F)F)nn2C1 [EX. 464]	< 10 nM	–
O[C@@H]1COc2c(-c3[nH]c4ncccc4c3-c3ccccc3)c(C(F)F)nn2C1 [EX. 465]	< 10 nM	–
